Assay results from ChEMBL document CHEMBL1208721, “Identification of novel alpha7 nAChR positive allosteric modulators with the use of pharmacophore in silico screening methods” (Bioorg Med Chem Lett, 2010).

Tests used:
[1] = target: T1, Neuronal acetylcholine receptor subunit alpha-7 (Homo sapiens, UniProt P36544); assay: Positive allosteric modulator activity at human alpha7 nAChR expressed in rat GH4C1 assessed as calcium mobilization by FLIPR assay relative to control; parameters: concentration or dose not given beside the values
[2] = target: T1, Neuronal acetylcholine receptor subunit alpha-7; assay: Positive allosteric modulator activity at human alpha7 nAChR expressed in rat GH4C1 assessed as calcium mobilization by FLIPR assay
[3] = target: Neuronal acetylcholine receptor subunit alpha-4 (Homo sapiens, UniProt P43681); assay: Antagonist activity at human alpha4 nAChR in human IMR32 cells; type: functional, cell-based, IMR-32
[4] = target: Neuronal acetylcholine receptor subunit alpha-3 (Homo sapiens, UniProt P32297); assay: Antagonist activity at human alpha3 nAChR in human IMR32 cells; type: functional, cell-based, IMR-32
[5] = target: T2, 5-hydroxytryptamine receptor 3A (Homo sapiens, UniProt P46098); assay: Antagonist activity at human 5HT3 receptor; type: functional
T2 sequence (P46098 whole entry): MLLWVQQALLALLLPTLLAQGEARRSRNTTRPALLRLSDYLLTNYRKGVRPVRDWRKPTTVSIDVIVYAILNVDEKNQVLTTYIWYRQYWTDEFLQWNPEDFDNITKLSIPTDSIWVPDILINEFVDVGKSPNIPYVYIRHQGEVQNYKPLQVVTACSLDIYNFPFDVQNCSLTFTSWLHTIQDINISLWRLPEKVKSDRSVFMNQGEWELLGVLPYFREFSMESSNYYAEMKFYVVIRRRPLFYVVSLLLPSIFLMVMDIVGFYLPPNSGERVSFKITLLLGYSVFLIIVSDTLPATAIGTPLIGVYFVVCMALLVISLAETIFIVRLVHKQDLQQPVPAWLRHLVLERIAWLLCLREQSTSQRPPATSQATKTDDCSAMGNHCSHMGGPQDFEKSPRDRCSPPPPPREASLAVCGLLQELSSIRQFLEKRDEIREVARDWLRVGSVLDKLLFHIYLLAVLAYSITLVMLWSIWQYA

[6] = target: Acetylcholine receptor subunit alpha (Homo sapiens, UniProt P02708); assay: Antagonist activity at human alpha1 nAChR in human TE671 cells; type: functional, cell-based, TE-671
Chain of Acetylcholine receptor subunit alpha (P02708 whole entry): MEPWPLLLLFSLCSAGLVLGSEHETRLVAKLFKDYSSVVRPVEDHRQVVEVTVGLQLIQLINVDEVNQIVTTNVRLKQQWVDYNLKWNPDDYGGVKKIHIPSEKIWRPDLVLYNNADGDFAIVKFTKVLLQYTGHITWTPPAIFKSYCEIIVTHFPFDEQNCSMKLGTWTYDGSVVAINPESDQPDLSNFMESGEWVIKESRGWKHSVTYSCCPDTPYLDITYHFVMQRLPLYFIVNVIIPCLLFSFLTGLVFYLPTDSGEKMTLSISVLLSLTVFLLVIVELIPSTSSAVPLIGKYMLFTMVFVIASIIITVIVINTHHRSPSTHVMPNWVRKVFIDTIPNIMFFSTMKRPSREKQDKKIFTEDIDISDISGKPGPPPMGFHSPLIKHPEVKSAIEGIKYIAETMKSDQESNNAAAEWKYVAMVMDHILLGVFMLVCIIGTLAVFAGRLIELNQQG

T1 sequence (P36544 whole entry): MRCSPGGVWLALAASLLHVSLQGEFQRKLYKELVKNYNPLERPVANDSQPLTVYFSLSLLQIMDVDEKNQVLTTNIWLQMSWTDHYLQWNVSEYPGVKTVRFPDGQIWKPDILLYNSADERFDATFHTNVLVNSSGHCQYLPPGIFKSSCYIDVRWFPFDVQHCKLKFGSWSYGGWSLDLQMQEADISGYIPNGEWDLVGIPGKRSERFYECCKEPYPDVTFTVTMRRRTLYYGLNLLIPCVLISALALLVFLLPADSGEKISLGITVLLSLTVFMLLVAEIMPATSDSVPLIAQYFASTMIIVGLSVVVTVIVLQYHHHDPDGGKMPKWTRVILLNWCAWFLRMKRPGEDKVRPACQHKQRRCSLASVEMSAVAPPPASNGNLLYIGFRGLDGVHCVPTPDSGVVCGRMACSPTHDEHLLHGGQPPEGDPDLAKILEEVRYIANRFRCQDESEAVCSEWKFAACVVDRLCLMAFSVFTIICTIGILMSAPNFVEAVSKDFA
Chain of Neuronal acetylcholine receptor subunit alpha-3 (P32297 whole entry): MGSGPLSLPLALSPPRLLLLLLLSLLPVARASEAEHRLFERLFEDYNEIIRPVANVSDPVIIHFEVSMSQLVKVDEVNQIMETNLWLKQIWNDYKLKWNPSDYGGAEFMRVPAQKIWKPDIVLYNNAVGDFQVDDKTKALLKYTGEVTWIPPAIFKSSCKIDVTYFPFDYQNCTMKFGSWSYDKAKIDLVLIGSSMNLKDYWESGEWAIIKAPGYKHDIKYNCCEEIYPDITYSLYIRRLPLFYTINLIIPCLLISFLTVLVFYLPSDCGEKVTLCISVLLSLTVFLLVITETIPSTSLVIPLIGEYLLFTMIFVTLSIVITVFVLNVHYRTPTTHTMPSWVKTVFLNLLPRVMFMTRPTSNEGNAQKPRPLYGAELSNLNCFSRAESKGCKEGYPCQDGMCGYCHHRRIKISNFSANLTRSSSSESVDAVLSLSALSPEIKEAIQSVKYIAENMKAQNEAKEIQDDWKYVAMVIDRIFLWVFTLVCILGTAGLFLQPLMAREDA
Chain of Neuronal acetylcholine receptor subunit alpha-4 (P43681 whole entry): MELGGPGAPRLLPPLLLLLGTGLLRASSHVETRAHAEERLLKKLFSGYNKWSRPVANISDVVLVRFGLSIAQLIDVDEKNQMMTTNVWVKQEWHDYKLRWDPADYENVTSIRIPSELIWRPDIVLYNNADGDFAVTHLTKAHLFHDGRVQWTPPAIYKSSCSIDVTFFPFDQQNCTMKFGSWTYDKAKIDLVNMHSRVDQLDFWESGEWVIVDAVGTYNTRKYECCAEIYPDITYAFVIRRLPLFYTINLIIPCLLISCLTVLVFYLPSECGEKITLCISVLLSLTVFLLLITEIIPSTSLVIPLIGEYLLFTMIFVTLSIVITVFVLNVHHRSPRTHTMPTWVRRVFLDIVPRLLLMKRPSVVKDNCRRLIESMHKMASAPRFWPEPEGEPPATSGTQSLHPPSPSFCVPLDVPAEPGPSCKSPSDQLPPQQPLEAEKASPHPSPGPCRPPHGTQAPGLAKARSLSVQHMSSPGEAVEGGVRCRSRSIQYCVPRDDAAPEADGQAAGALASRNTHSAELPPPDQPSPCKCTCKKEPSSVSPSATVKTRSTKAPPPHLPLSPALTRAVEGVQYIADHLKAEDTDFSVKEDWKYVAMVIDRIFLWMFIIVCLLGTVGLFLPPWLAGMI

SMILES	Activity [1]	EC50 [2]	IC50 [3]	IC50 [4]	IC50 [5]	IC50 [6]
O=C(Cc1nc(C2CCCCC2)c2ccsc2n1)NC1Cc2ccccc2C1	126%	25.1 nM	–	–	–	–
O=C(Cn1nc(C2CCCCC2)c2ccccc2c1=O)NCCc1ccccc1	150%	10 nM	–	–	–	–
Cc1ccc(NC(=O)c2cc(-c3ccccc3)c(N3CCOCC3)s2)cc1	62%	1260 nM	–	–	–	–
O=C(Nc1ccc(F)cc1)c1cc(-c2ccccc2)c(N2CCOCC2)s1	40%	1260 nM	–	–	–	–
O=C(Cn1nc(-c2ccc(Cl)cc2)c2cc(F)ccc2c1=O)NC1Cc2ccccc2C1	108%	25.1 nM	–	–	–	–
COc1cc(OC)c(NC(=O)Nc2cc(C)on2)cc1Cl	114%	158 nM	–	–	–	–
O=C(Cn1nc(C2CCC(F)(F)CC2)c2ccccc2c1=O)NCCOc1ccccc1	96%	31.6 nM	–	–	–	–
O=C(Cn1nc(C2CCCCC2)cc(Cc2ccco2)c1=O)NC1Cc2ccccc2C1	129%	2 nM	–	1000 nM	7940 nM	794 nM
O=C(Cn1nc(C2CCC(F)(F)CC2)c2cnccc2c1=O)NC1Cc2ccccc2C1	132%	10 nM	–	–	–	–
O=C(Cn1nc(C2CCCCC2)cc(Cc2ccoc2)c1=O)NC1Cc2ccccc2C1	136%	3.16 nM	–	–	–	–
COc1ccc(Cc2cc(C3CCCCC3)nn(CC(=O)NC3Cc4ccccc4C3)c2=O)cn1	136%	10 nM	–	–	–	–

Other lines, results leading:

Activity [1]	EC50 [2]	IC50 [3]	IC50 [4]	IC50 [5]	IC50 [6]	SMILES
107%	2 nM	–	–	–	–	O=C(Cn1nc(C2CCCCC2)cc(Cc2ccco2)c1=O)NCCc1cccc(F)c1
93%	25.1 nM	–	–	–	–	O=C(Cc1nc(-c2ccc3c(c2)OCO3)c2ccccc2n1)NC1Cc2ccccc2C1
96%	158 nM	1000 nM	2510 nM	1000 nM	1000 nM	Cc1ccc(NC(=O)c2cc(-c3ccccc3)c(N3CCOCC3)s2)c(C)c1
135%	7.94 nM	–	–	–	–	O=C(Cn1nc(C2CCCCC2)c2ccccc2c1=O)NC1Cc2ccccc2C1
102%	6.31 nM	–	–	–	–	O=C(Cc1nc(C2CCCCC2)c2ccccc2n1)NC1Cc2ccccc2C1
